According to article PMC11079024, “Identification of a family of species-selective complex I inhibitors as potential anthelmintics” (Nature Communications, 2024):
Read-outs that look alike come from different tables or passages of the source.

Columns and labels:
[1] = biological target: C. elegans (N2) complex I (NADH:ubiquinone oxidoreductase) (Caenorhabditis elegans, UniProt P24887+Q93873+Q94360); assay: biochemical; type: biochemical
Summary of the method: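 Mitochondria, 0.2 mg/mL protein, freeze-thawed three times, assayed in 25 mM KPi pH 7.5 with BSA, 80 μM NADH, 60 μM decylubiquinone, 160 μM DCIP, antimycin A and KCN. Rate from initial linear slope of A600 over 15 min. % of solvent control.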

[2] = biological target: B. taurus (heart) complex I (Bos taurus, UniProt P03887+P17694+P42026); assay: biochemical; type: biochemical
Summary of the method: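 Complex I activity followed as DCIP reduction (600 nm, 30 s reads, 15 min) with 80 μM NADH and 60 μM decylubiquinone in 25 mM KPi pH 7.5 containing 2 μM antimycin A and 2 mM KCN. Freeze-thawed mouse or bovine heart mitochondria at 0.2 mg/mL; initial-rate percent of solvent control, single-point 100 μM or dose-response.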

[3] = wild-type C. elegans, individual Rep1-Rep4, read-out: percent in vitro complex I activity relative to solvent control, single replicates
[4] = wild-type C. elegans, mean of Rep1-4, read-out: percent in vitro complex I activity relative to solvent control, Mean

Sequence of C. elegans (N2) complex I (NADH:ubiquinone oxidoreductase) (Q94360 17-199): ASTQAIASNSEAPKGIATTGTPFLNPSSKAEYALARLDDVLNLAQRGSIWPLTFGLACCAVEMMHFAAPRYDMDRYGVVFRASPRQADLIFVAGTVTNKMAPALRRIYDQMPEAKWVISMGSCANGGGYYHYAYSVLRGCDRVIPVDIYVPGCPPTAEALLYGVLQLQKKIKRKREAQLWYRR
Sequence of C. elegans (N2) complex I (NADH:ubiquinone oxidoreductase) (P24887 whole entry): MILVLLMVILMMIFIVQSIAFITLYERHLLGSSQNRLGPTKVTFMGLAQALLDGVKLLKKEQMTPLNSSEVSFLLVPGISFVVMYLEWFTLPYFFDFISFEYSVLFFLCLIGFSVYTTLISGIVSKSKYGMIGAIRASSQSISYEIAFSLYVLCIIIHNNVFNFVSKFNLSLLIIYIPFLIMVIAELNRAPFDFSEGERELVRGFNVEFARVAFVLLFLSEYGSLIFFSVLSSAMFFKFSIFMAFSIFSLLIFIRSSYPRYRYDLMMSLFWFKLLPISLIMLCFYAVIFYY
Sequence of C. elegans (N2) complex I (NADH:ubiquinone oxidoreductase) (Q93873 31-482): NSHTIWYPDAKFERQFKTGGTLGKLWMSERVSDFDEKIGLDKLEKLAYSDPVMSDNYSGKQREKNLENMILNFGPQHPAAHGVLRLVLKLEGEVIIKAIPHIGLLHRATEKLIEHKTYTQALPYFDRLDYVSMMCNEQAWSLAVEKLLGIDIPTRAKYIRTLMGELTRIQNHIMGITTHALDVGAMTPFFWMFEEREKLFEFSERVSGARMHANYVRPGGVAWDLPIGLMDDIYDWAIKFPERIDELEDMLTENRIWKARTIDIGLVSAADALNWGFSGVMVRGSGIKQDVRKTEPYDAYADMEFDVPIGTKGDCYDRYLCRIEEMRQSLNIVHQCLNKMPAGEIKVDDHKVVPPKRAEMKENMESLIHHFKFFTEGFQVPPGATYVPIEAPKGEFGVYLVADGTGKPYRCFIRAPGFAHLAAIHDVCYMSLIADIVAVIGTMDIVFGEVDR
Sequence of B. taurus (heart) complex I (P03887 whole entry): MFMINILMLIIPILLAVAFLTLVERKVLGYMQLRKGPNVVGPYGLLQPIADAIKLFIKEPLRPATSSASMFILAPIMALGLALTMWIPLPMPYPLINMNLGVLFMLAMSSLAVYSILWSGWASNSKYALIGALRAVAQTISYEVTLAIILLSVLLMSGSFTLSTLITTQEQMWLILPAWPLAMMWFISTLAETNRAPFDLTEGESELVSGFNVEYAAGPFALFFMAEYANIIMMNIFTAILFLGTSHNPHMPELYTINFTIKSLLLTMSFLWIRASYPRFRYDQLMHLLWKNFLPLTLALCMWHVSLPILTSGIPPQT
Sequence of B. taurus (heart) complex I (P17694 34-463): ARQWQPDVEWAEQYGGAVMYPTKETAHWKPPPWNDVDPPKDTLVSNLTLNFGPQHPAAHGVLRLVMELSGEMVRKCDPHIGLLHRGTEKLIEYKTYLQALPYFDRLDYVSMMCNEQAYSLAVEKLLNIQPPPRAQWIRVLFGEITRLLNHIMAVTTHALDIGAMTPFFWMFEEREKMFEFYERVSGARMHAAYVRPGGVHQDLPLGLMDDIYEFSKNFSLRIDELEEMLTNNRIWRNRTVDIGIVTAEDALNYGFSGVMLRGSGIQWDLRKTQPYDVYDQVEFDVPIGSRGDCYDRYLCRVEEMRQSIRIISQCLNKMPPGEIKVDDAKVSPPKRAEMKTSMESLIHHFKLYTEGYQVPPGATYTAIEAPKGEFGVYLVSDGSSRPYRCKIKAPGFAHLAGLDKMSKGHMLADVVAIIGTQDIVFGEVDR
Sequence of B. taurus (heart) complex I (P42026 38-216): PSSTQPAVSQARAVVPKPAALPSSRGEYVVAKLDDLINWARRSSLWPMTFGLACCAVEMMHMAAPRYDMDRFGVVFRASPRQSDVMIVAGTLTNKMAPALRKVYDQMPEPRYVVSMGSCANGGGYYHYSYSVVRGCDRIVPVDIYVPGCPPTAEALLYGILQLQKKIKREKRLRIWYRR

SMILES: Clc1ccccc1OCCCCn1cnc2ccccc21 [Compound 7925804]
- remaining activity at 0.0001 µM [1, 3]: 106%
- remaining activity at 0.0001 µM [1, 4]: 95.7%
- remaining activity at 0.0005 µM [1, 3]: 98.1%
- remaining activity at 0.0005 µM [1, 4]: 95.4%
- remaining activity at 0.001 µM ([1]; 0.001 µM, wild-type C. elegans, mean of Rep1-4, read-out: percent in vitro complex I activity relative to solvent control, Mean): 95.9%
- remaining activity at 0.0025 µM [1, 3]: 100%
- remaining activity at 0.0025 µM [1, 4]: 100%
- remaining activity at 0.005 µM [1, 3]: 93.7%
- remaining activity at 0.005 µM [1, 4]: 93.4%
- remaining activity at 0.013 µM [1, 3]: 92.2%
- remaining activity at 0.013 µM [1, 4]: 96.2%
- remaining activity at 0.025 µM [1, 3]: 86.9%
- remaining activity at 0.025 µM [1, 4]: 94.4%
- remaining activity at 0.063 µM [1, 3]: 83.6%
- remaining activity at 0.063 µM [1, 4]: 81.6%
- remaining activity at 0.125 µM [1, 3]: 65.6%
- remaining activity at 0.125 µM [1, 4]: 64.9%
- remaining activity at 0.313 µM [1, 3]: 53.9%
- remaining activity at 0.313 µM [1, 4]: 47.4%
- remaining activity at 0.625 µM ([1]; 0.625 µM, wild-type C. elegans, mean of Rep1-4, read-out: percent in vitro complex I activity relative to solvent control, Mean): 32.7%
- remaining activity at 1.5 µM ([1]; 1.5 µM, wild-type C. elegans, mean of Rep1-4, read-out: percent in vitro complex I activity relative to solvent control, Mean): 15.5%
- remaining activity at 3 µM ([1]; 3 µM, wild-type C. elegans, mean of Rep1-4, read-out: percent in vitro complex I activity relative to solvent control, Mean): 8.88%
- remaining activity at 15 µM ([1]; 15 µM, wild-type C. elegans, mean of Rep1-4, read-out: percent in vitro complex I activity relative to solvent control, Mean): 2.59%
- remaining activity at 37.5 µM ([1]; 37.5 µM, wild-type C. elegans, mean of Rep1-4, read-out: percent in vitro complex I activity relative to solvent control, Mean): 2.95%
- remaining activity at 75 µM ([1]; 75 µM, wild-type C. elegans, mean of Rep1-4, read-out: percent in vitro complex I activity relative to solvent control, Mean): 6.38%
- activity at 0.0001 µM ([1]; Dose 0.0001 µM, read-out: C. elegans mitochondrial complex I activity): 95.7%
- activity at 0.0005 µM ([1]; Dose 0.0005 µM, read-out: C. elegans mitochondrial complex I activity): 95.4%
- activity at 0.001 µM ([1]; Dose 0.001 µM, read-out: C. elegans mitochondrial complex I activity): 95.9%
- activity at 0.0025 µM ([1]; Dose 0.0025 µM, read-out: C. elegans mitochondrial complex I activity): 100%
- activity at 0.005 µM ([1]; Dose 0.005 µM, read-out: C. elegans mitochondrial complex I activity): 93.4%
- activity at 0.013 µM ([1]; Dose 0.013 µM, read-out: C. elegans mitochondrial complex I activity): 96.2%
- activity at 0.025 µM ([1]; Dose 0.025 µM, read-out: C. elegans mitochondrial complex I activity): 94.4%
- activity at 0.063 µM ([1]; Dose 0.063 µM, read-out: C. elegans mitochondrial complex I activity): 81.6%
- activity at 0.125 µM ([1]; Dose 0.125 µM, read-out: C. elegans mitochondrial complex I activity): 64.9%
- activity at 0.313 µM ([1]; Dose 0.313 µM, read-out: C. elegans mitochondrial complex I activity): 47.4%
- activity at 0.625 µM ([1]; Dose 0.625 µM, read-out: C. elegans mitochondrial complex I activity): 32.7%
- activity at 1.5 µM ([1]; Dose 1.5 µM, read-out: C. elegans mitochondrial complex I activity): 15.5%
- activity at 3 µM ([1]; Dose 3 µM, read-out: C. elegans mitochondrial complex I activity): 8.88%
- activity at 15 µM ([1]; Dose 15 µM, read-out: C. elegans mitochondrial complex I activity): 2.59%
- activity at 37.5 µM ([1]; Dose 37.5 µM, read-out: C. elegans mitochondrial complex I activity): 2.95%
- activity at 75 µM ([1]; Dose 75 µM, read-out: C. elegans mitochondrial complex I activity): 6.38%
- IC50 ([1]; in vitro complex I dose response on C. elegans mitochondria, average of at least two biological replicates, fit in R (DRC), read-out: IC50 C. elegans complex I): 270 nM
- Log IC50 C. elegans complex I ([1]; log10 of IC50 in µM, C. elegans mitochondria): -0.57 µM
- IC50 ([1]; wild-type C. elegans mitochondria, estimated from fitted dose-response curves, read-out: C. elegans Complex I IC50): 270 nM
- IC50 ([2]; B. taurus heart mitochondria, estimated from fitted dose-response curves, read-out: B. taurus Complex I IC50): 1350 nM
- activity at 0.0001 µM ([2]; Dose 0.0001 µM, read-out: B. taurus mitochondrial complex I activity): 106%
- activity at 0.0005 µM ([2]; Dose 0.0005 µM, read-out: B. taurus mitochondrial complex I activity): 116%
- activity at 0.001 µM ([2]; Dose 0.001 µM, read-out: B. taurus mitochondrial complex I activity): 117%
- activity at 0.0025 µM ([2]; Dose 0.0025 µM, read-out: B. taurus mitochondrial complex I activity): 118%
- activity at 0.005 µM ([2]; Dose 0.005 µM, read-out: B. taurus mitochondrial complex I activity): 118%
- activity at 0.013 µM ([2]; Dose 0.013 µM, read-out: B. taurus mitochondrial complex I activity): 117%
- activity at 0.025 µM ([2]; Dose 0.025 µM, read-out: B. taurus mitochondrial complex I activity): 116%
- activity at 0.063 µM ([2]; Dose 0.063 µM, read-out: B. taurus mitochondrial complex I activity): 111%
- activity at 0.125 µM ([2]; Dose 0.125 µM, read-out: B. taurus mitochondrial complex I activity): 99.3%
- activity at 0.313 µM ([2]; Dose 0.313 µM, read-out: B. taurus mitochondrial complex I activity): 90.5%
- activity at 0.625 µM ([2]; Dose 0.625 µM, read-out: B. taurus mitochondrial complex I activity): 75.5%
- activity at 1.5 µM ([2]; Dose 1.5 µM, read-out: B. taurus mitochondrial complex I activity): 54.8%
- activity at 3 µM ([2]; Dose 3 µM, read-out: B. taurus mitochondrial complex I activity): 39.2%
- activity at 15 µM ([2]; Dose 15 µM, read-out: B. taurus mitochondrial complex I activity): 9.9%
- activity at 37.5 µM ([2]; Dose 37.5 µM, read-out: B. taurus mitochondrial complex I activity): 3.53%
- activity at 75 µM ([2]; Dose 75 µM, read-out: B. taurus mitochondrial complex I activity): 2.37%
- Log IC50 B. taurus complex I ([2]; log10 of IC50 in µM, B. taurus mitochondria): 0.13 µM
